In patent US11267840B1, “Compound or salt thereof” (M.T.3, Inc., priority 2020, dated 2022):

Columns and labels:
[1] = test system: adenocarcinomic human alveolar basal epithelial cell line A549 cells; experiment: ROS production in A549 cells (CellROX Green fluorescence), test as candidate compound for radiosensitizer; assay type: cell-based; conditions: 1 hour with test compound, CellROX Green 30 minutes, excitation 485 nm, detection 520 nm, FIG. 19
Description: Fetal bovine serum (FBS) (manufactured by Sigma-Aldrich) was added to RPMI1640 (manufactured by Sigma-Aldrich) such that a final concentration was 10%. Further, penicillin G potassium (manufactured by Meiji Seika) and Streptomycin (manufactured by Meiji Seika) were each added in an amount of 0.1 mg/mL, and the thus obtained solution was used as a culture medium in the following test. Also, a CellROX Green Reagent solution (manufactured by Thermo Fisher Scientific) was used as a reagent.
Adenocarcinomic human alveolar basal epithelial cell line A549 cells were suspended in the RPMI1640 medium (1.0×10^5 cells/mL), and the suspension was poured into a 96-well plate in an amount of 100 μL for each well. Thereafter, the cells were cultivated under a 5% CO2 moisture-saturated condition at 37° C. so as to attach to the plate, and after the cultivation was performed for 24 hours, the medium was removed by suction and the cells were washed with PBS. Next, 100 μL of PBS and 100 μL of a suspension of the test compound suspended in PBS ([…]) were separately added. […] After the cultivation was performed for 30 minutes, washing was performed using PBS, and fluorescence intensity at an excitation wavelength of 485 nm and a detection wavelength of 520 nm was measured.

[2] = target: T1, lipase for organic synthesis (Lipase PS Amano SD) (Burkholderia cepacia, UniProt P22088); assay type: in vitro ADME
T1 construct: purchased FUJIFILM Wako Pure Chemical Corporation
Description: The test compound and lipase for organic synthesis (Lipase PS Amano SD, manufactured by FUJIFILM Wako Pure Chemical Corporation) were each adjusted using PBS so as to have a concentration of 1.3 μg/μL. Next, the thus obtained reaction solution was developed by TLC using an eluent (chloroform:methanol=1:1) and was analyzed. A sample that was taken before reaction progressed, a sample that was taken when 2 hours elapsed, and a sample that was taken when 4 hours elapsed were each used as the reaction solution to be developed. As for the reaction solution in which the compound (A) was used as the test compound, analysis was also performed on a sample that was taken when 18 hours elapsed from the start of reaction. TLC aluminum sheet silica gel 60 F254 (manufactured by Merck) was used as the TLC.

T1 sequence (P22088 45-364): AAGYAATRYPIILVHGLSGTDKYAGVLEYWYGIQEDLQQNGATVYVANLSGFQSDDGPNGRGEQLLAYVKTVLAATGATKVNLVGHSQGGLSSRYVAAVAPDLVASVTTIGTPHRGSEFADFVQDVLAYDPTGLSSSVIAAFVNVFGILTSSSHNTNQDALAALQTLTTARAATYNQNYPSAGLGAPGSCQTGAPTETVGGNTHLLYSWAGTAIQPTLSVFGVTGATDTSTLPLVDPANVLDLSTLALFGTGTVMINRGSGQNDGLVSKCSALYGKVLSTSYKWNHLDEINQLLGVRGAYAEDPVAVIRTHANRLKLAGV

Q: For “3-(n-octadecyloxy)-n-propyl-α-D-quinovopyranoside sodium salt [compound (A)]”, which “ROS production (ROS production ratio, fluorescence intensity relative to PBS only = 1)” value [1] is on record?
A: Its value is “induced production of the ROS”.

Q: What about the “resistance to hydrolysis compared with the sulfopyranosylacyl propanediol derivative” value ([2]; lipase, overall conclusion of FIG. 20) of the same substance?
A: The value was “more excellent resistance to hydrolysis”.

Q: What about the “decomposition of the test compound by lipase (TLC)” value ([2]; when 18 hours elapsed from the start of reaction, compound and lipase each 1.3 μg/μL in PBS, FIG. 20) of the same substance?
A: Its value is “not completely decomposed”.
